From US9572786B2, “Use of capsiate or dihydrocapsidate” (Catholic University Industry Academy Cooperation Foundation, priority 2007, dated 2017)

Key:
[1] = tested on: IL-6; assay: UV-induced pro-inflammatory cytokine mRNA, RT-PCR: IL-6; format: cell-based, human; settings: HaCaT cells; 10, 25, 50 μM; UV 100 J/m^2; 4 hours
Procedure: (§1) 1×10^6 HaCaT cells were placed on a 100 mm Petri dish and cultured for 24 hours in DMEM containing 10% FBS. Subsequently, the cells were cultured for 24 hours in DMEM containing 1% FBS until starvation. Then, after treating with capsiate at different concentrations (10 μM, 25 μM, 50 μM) for 30 minutes, followed by washing 3 times with PBS, UV was irradiated at an intensity of 100 J/m^2 to induce the production of cytokines. Immediately after the UV irradiation, the cells were washed again with PBS and further cultured for 4 hours in DMEM containing 1% FBS, which was treated with capsiate at the same concentration as in the pre-treatment.
(§2) Then, the degree of mRNA expression for IL-6, IL-8 and TNF-α induced mainly in the skin by the UV irradiation was evaluated by RT-PCR in order to measure the inhibition effect against the pro-inflammatory cytokines.
(§3) RNAs were extracted from the cells of each test group using Trizol (Invitrogen, USA) and used as template for PCR (PTC-225 Peltier thermal cycler, MJ Research, USA) to prepare cDNAs for each test group. Using the resultant cDNAs as template, the degree of mRNA expression for IL-6, IL-8 and TNF-α was measured by RT-PCR (Roter Gene 6000 series, Corbett Research, Australia) using commercial IL-6, IL-8 and TNF-α primers. […]

[2] = tested on: IL-8; assay: UV-induced pro-inflammatory cytokine mRNA, RT-PCR: IL-8; format: cell-based, human; settings: HaCaT cells; 10, 25, 50 μM; UV 100 J/m^2; 4 hours
Procedure: as §1, §2, §3

[3] = tested on: COX-2; assay: UV-induced COX-2 expression in mouse skin tissue, immunohistochemical staining; format: in vivo; settings: hairless mouse; 200 μL of 1 mM topically; 4 times of UV irradiation
Procedure: In order to confirm the in vitro experiment result performed on the human keratinocyte HaCaT cells in an animal model, experiment was carried out as follows using hairless mouse (SKH-1). Test groups were as follows: non-treated group—treated with acetone only without UV irradiation; test group A—treated with 200 μL of 1 mM capsiate dissolved in acetone every 24 hours without UV irradiation; control group—treated with UV and acetone; test group B—treated with UV and 200 μL of 1 mM capsiate dissolved in acetone every 24 hours (Unspecified conditions are the same as in Examples 5-7.).
Capsiate was applied on the back of the mouse. 1 hour later, UV was irradiated at an intensity of 2.5 kJ/m^2. 1 hour later, capsiate was applied again at the same concentration in order to prevent rash which may occur immediately after UV irradiation. Thereafter, capsiate was applied every 24 hours and UV irradiation was carried out every other day at an intensity of 2.5 kJ/m^2 for 4 times. In order to investigate the change of tissue and intracellular mechanism (signaling), the mouse was euthanized 1 hour after the final UV irradiation. Skin tissue was taken from the back of the mouse and subjected to skin biopsy following observation.
In order to reconfirm this effect, immunohistochemical staining was carried out as follows. […]

[4] = tested on: ICAM-1 (CD54); assay: ICAM-1 expression in mouse skin, Western blotting; format: in vivo; settings: mouse skin tissue; test group B
Procedure: In order to investigate the effect of capsiate on various intracellular angiogenesis-related expression factors, the inhibition effect of capsiate on angiogenesis factors induced by UV was evaluated using the mouse tissue of Example 5.
Western blotting was carried out in the same manner as Example 6 using the proteins isolated from the mouse skin tissue of each test group in Example 6, in order to investigate the level of expression of ICAM-1 (CD54), which is involved in cell infiltration, cell migration, angiogenesis, etc. in inflammatory response. In order to investigate the level of ICAM-1 expression, mouse anti-ICAM-1 antibody (Santa Cruz, USA) and HRP-conjugated secondary antibody (1:10,000, Zymed) were used.

[5] = tested on: MMP-2; assay: MMP-2 mRNA in mouse skin, RT-PCR; format: in vivo; settings: mouse tissue of Example 5; normalized using GAPDH
Procedure: mRNA was extracted from the mouse tissue of each test group of Example 5 and the level of expression thereof was evaluated in order to investigate the effect of capsiate on the expression of MMP-2 and MMP-9 induced by angiogenesis and immune response.
For RNA extraction from the tissue, each mouse tissue was subjected to skin biopsy, quickly frozen in liquid nitrogen and finely ground using a mortar. RNA was extracted from the mouse tissue using Trizol (Invitrogen, USA). PCR (PTC-225 Peltier thermal cycler, MJ Research, USA) was carried out using the RNA as template and using a commercial kit (reverse transcription system, Qiagen, USA). As a result, cDNA for each test group was prepared.
RT-PCR (Rotor Gene 6 series, Corbett Research, Australia) was carried out using thus prepared cDNA as template and using MMP-2 and MMP-9 primers (Qiagen, USA). The level of mRNA expression for MMP was normalized using GAPDH. The level of expression was compared with that of the non-treated group, which was treated with acetone only.

Structure (SMILES): COc1cc(COC(=O)CCCC/C=C/C(C)C)ccc1O [capsiate]
- expression of IL-6 (mRNA) increased by UV irradiation [1]: significantly decreases
- expression of IL-8 (mRNA) increased by UV irradiation [2]: significantly decreases
- UV-induced increase of COX-2 in mouse skin tissue (immunohistochemical staining) [3]: effectively inhibited
- level of ICAM-1 expression increased by UV irradiation [4]: decreased
- expression of MMP-2 (mRNA) in mouse skin tissue [5]: decreased
